How the values were obtained:
Type in all cases: in vivo
[1] = test system: pigweed, redroot (redroot pigweed, Amaranthus retroflexus); experiment: Test A preemergence, redroot pigweed; conditions: 0 to 100 scale, 10 days
Excerpt: (§1) Seeds of plant species selected from barnyardgrass (Echinochloa crus-galli), blackgrass (Alopecurus myosuroides), corn (Zea mays), foxtail, giant (giant foxtail, Setaria faberi), goosegrass (Eleusine indica), kochia (Bassia scoparia), oat, wild (wild oat, Avena fatua), pigweed, palmer (palmer amaranth, Amaranthus palmeri), pigweed, redroot (redroot pigweed, Amaranthus retroflexus), ragweed (common ragweed, Ambrosia artemisiifolia), ryegrass, Italian (Italian ryegrass, Lolium multiflorum), soybean (Glycine max), and wheat (Triticum aestivum) were planted into a blend of loam soil and sand and treated preemergence with a directed soil spray using test chemicals formulated in a non-phytotoxic solvent mixture which included a surfactant.
(§2) At the same time, plants selected from these crop and weed species and also galium (catchweed bedstraw, Galium aparine) and horseweed (Erigeron canadensis) were planted in pots containing the same blend of loam soil and sand and treated with postemergence applications of test chemicals formulated in the same manner. Plants ranged in height from 2 to 10 cm and were in the one- to two-leaf stage for the postemergence treatment. Treated plants and untreated controls were maintained in a greenhouse for 10 days, after which time all treated plants were compared to untreated controls and visually evaluated for injury. Plant response ratings, summarized in Table A, are based on a 0 to 100 scale where 0 is no effect and 100 is complete control. A dash (-) response means no test result.

[2] = test system: barnyardgrass (Echinochloa crus-galli); experiment: Test A preemergence, barnyardgrass; conditions: 10 days
Excerpt: as §1, §2

[3] = test system: pigweed, redroot (redroot pigweed, Amaranthus retroflexus); experiment: Test A postemergence, redroot pigweed; conditions: 0 to 100 scale, 10 days
Excerpt: as §1, §2

[4] = test system: barnyardgrass (Echinochloa crus-galli); experiment: Test A postemergence, barnyardgrass; conditions: 0 to 100 scale, 10 days
Excerpt: as §1, §2

[5] = 125 g ai/ha, 0 to 100 scale (0 no effect, 100 complete control)

Row | SMILES | Plant response rating, Pigweed, Redroot ([1]; 31 g ai/ha) | Plant response rating, Pigweed, Redroot ([1]; 125 g ai/ha) | Plant response rating, Barnyardgrass ([2]; 31 g ai/ha, 0 to 100 scale) | Plant response rating, Barnyardgrass [2, 5] | Plant response rating, Pigweed, Redroot ([3]; 31 g ai/ha) | Plant response rating, Pigweed, Redroot ([3]; 125 g ai/ha) | Plant response rating, Barnyardgrass ([4]; 31 g ai/ha) | Plant response rating, Barnyardgrass ([4]; 125 g ai/ha)
1 | C#CCOC1CCN(c2cc(NS(=O)(=O)C(F)(F)F)c(C)cc2C)C1=O (stereo not shown) [Compound 1, N-[2,4-dimethyl-5-[2-oxo-3-(2-propyn-1-yloxy)-1-pyrrolidinyl]phenyl]-1,1,1-trifluoromethanesulfonamide] | 90 | 100 | 80 | 100 | 80 | 90 | 80 | 90
2 | C=CCOC1CCN(c2cc(NS(=O)(=O)C(F)(F)F)c(C)cc2C)C1=O (stereo not shown) [Compound 2, N-[2,4-dimethyl-5-[2-oxo-3-(2-propen-1-yloxy)-1-pyrrolidinyl]phenyl]-1,1,1-trifluoromethanesulfonamide] | 90 | 100 | 0 | 100 | 90 | 90 | 30 | 90

— patent US20240158348A1, “HERBICIDAL CYCLIC AMIDES N-SUBSTITUTED WITH A HALOALKYLSULFONYLANILIDE GROUP” (FMC Corporation, priority 2021, published 2024)
